Laboratory results reported in the NIST ThermoML archive (doi:10.1021/acs.jced.8b00217).
± gives the expanded uncertainty stated by the source.

Assays:
[1] = 298.15 K; 101.3 kPa; Liquid; Vibrating tube method
[2] = refractive index (Na D-line) (dimensionless); conditions: 298.15 K; 101.3 kPa; Liquid; Standard Abbe refractometry
[3] = relative permittivity at various frequencies (dimensionless); conditions: 298.15 K; 101.3 kPa; Liquid; Frequency=0.01 MHz; Coaxial cylinder capacitor
[4] = refractive index (Na D-line) (dimensionless); xn = mol fraction of the nth substance listed; conditions: 298.15 K, 101.3 kPa, Liquid, Standard Abbe refractometry
[5] = relative permittivity at various frequencies (dimensionless); xn = mol fraction of the nth substance listed; conditions: 298.15 K, 101.3 kPa, Liquid, Frequency=0.01 MHz, Coaxial cylinder capacitor
[6] = xn = mol fraction of the nth substance listed; conditions: 298.15 K, 101.3 kPa, Liquid, Vibrating tube method

Structure (SMILES)	mass density [1] [kg/m3]	refractive index [2]	relative permittivity [3]	refractive index ([4]; x1 = 0.1)	refractive index ([4]; x1 = 0.2)	refractive index ([4]; x1 = 0.3)	refractive index ([4]; x1 = 0.4)	refractive index ([4]; x1 = 0.5)	refractive index ([4]; x1 = 0.6)	refractive index ([4]; x1 = 0.7)	refractive index ([4]; x1 = 0.8)	refractive index ([4]; x1 = 0.9)	refractive index ([4]; x1 = 1)	relative permittivity ([5]; x1 = 0.1)	relative permittivity ([5]; x1 = 0.2)	relative permittivity ([5]; x1 = 0.3)	relative permittivity ([5]; x1 = 0.4)	relative permittivity ([5]; x1 = 0.5)	relative permittivity ([5]; x1 = 0.6)	relative permittivity ([5]; x1 = 0.7)	also measured
CCCCO [butan-1-ol]	805.92 ± 1	1.3971 ± 0.001	17.49 ± 0.71	–	–	–	–	–	–	–	–	–	–	–	–	–	–	–	–	–	–
CCCCO [butan-1-ol] + O=C1CCCC1	–	–	–	–	–	–	–	–	–	–	–	–	–	–	–	–	–	–	–	–	refractive index ([4]; x2 = 0): 1.3971 ± 0.001; relative permittivity ([5]; x2 = 0): 17.49 ± 0.71; mass density ([6]; x2 = 0): 805.92 ± 1 kg/m3
C1CCCCC1 [cyclohexane]	773.89 ± 1	1.4235 ± 0.001	2.02 ± 0.29	–	–	–	–	–	–	–	–	–	–	–	–	–	–	–	–	–	–
C1CCCCC1 [cyclohexane] + O=C1CCCC1	–	–	–	–	–	–	–	–	–	–	–	–	–	–	–	–	–	–	–	–	refractive index ([4]; x2 = 0): 1.4235 ± 0.001; relative permittivity ([5]; x2 = 0): 2.02 ± 0.29
O=C1CCCC1 [cyclopentanone]	944.31 ± 1	1.4347 ± 0.0011	13.52 ± 0.63	–	–	–	–	–	–	–	–	–	–	–	–	–	–	–	–	–	–
O=C1CCCC1 [cyclopentanone] + C1CCCCC1	–	–	–	1.4236 ± 0.001	1.4239 ± 0.001	1.4244 ± 0.001	1.4252 ± 0.001	1.4262 ± 0.001	1.4274 ± 0.001	1.4289 ± 0.0011	1.4306 ± 0.0011	1.4325 ± 0.0011	1.4347 ± 0.0011	2.78 ± 0.32	3.61 ± 0.36	4.51 ± 0.39	5.51 ± 0.42	6.6 ± 0.46	7.78 ± 0.49	9.06 ± 0.53	refractive index ([4]; x1 = 0.03): 1.4235 ± 0.001; refractive index ([4]; x1 = 0.05): 1.4235 ± 0.001; refractive index ([4]; x1 = 0.15): 1.4237 ± 0.001; relative permittivity ([5]; x1 = 0.03): 2.25 ± 0.3; relative permittivity ([5]; x1 = 0.05): 2.39 ± 0.31; relative permittivity ([5]; x1 = 0.15): 3.19 ± 0.34; relative permittivity ([5]; x1 = 0.8): 10.45 ± 0.56; relative permittivity ([5]; x1 = 0.9): 11.94 ± 0.6; relative permittivity ([5]; x1 = 1): 13.52 ± 0.63
O=C1CCCC1 [cyclopentanone] + CCCCCCCCCCO	–	–	–	1.4345 ± 0.0011	1.4339 ± 0.0011	1.4335 ± 0.0011	1.4333 ± 0.0011	1.4332 ± 0.0011	1.4332 ± 0.0011	1.4333 ± 0.0011	1.4336 ± 0.0011	1.4341 ± 0.0011	1.4347 ± 0.0011	7.75 ± 0.49	7.84 ± 0.49	8.07 ± 0.5	8.43 ± 0.51	8.93 ± 0.52	9.56 ± 0.54	10.34 ± 0.56	relative permittivity ([5]; x1 = 0.8): 11.27 ± 0.58; relative permittivity ([5]; x1 = 0.9): 12.31 ± 0.61; relative permittivity ([5]; x1 = 1): 13.52 ± 0.63; mass density ([6]; x1 = 0.1): 829.38 ± 1 kg/m3; mass density ([6]; x1 = 0.2): 833.22 ± 1 kg/m3; mass density ([6]; x1 = 0.3): 839.24 ± 1 kg/m3; mass density ([6]; x1 = 0.4): 847.47 ± 1 kg/m3; mass density ([6]; x1 = 0.5): 857.91 ± 1.1 kg/m3; mass density ([6]; x1 = 0.6): 870.34 ± 1.1 kg/m3; mass density ([6]; x1 = 0.7): 884.81 ± 1.1 kg/m3; mass density ([6]; x1 = 0.8): 901.52 ± 1.1 kg/m3; mass density ([6]; x1 = 0.9): 921.01 ± 1.1 kg/m3; mass density ([6]; x1 = 1): 944.31 ± 1 kg/m3
O=C1CCCC1 [cyclopentanone] + CCCCCCCCO	–	–	–	1.4276 ± 0.0011	1.4278 ± 0.0011	1.4282 ± 0.0011	1.4287 ± 0.0011	1.4294 ± 0.0011	1.4302 ± 0.0011	1.4311 ± 0.0011	1.4321 ± 0.0011	1.4333 ± 0.0011	1.4347 ± 0.0011	9.63 ± 0.54	9.51 ± 0.54	9.5 ± 0.54	9.65 ± 0.54	9.94 ± 0.55	10.37 ± 0.56	10.97 ± 0.57	relative permittivity ([5]; x1 = 0.8): 11.69 ± 0.59; relative permittivity ([5]; x1 = 0.9): 12.55 ± 0.61; relative permittivity ([5]; x1 = 1): 13.52 ± 0.63; mass density ([6]; x1 = 0.1): 827.28 ± 1 kg/m3; mass density ([6]; x1 = 0.2): 833.41 ± 1 kg/m3; mass density ([6]; x1 = 0.3): 841.25 ± 1 kg/m3; mass density ([6]; x1 = 0.4): 850.89 ± 1 kg/m3; mass density ([6]; x1 = 0.5): 862.2 ± 1.1 kg/m3; mass density ([6]; x1 = 0.6): 874.88 ± 1.1 kg/m3; mass density ([6]; x1 = 0.7): 889.18 ± 1.1 kg/m3; mass density ([6]; x1 = 0.8): 905.27 ± 1.1 kg/m3; mass density ([6]; x1 = 0.9): 923.62 ± 1.1 kg/m3; mass density ([6]; x1 = 1): 944.31 ± 1 kg/m3
